# In ChEMBL document CHEMBL1275533, “In vitro antibacterial activity of vertilmicin and its susceptibility to modifications by the recombinant AAC6'-APH2'' enzyme” (2008):
# Calls of active or inactive are those of the source. No cut-off for these calls is given here.
# Experiments:
# [1] = system: Escherichia coli BL21(DE3); assay: Acetylation activity of AAC(6')-APH(2'') in Escherichia coli BL21(DE3) assessed as production of free pyridine-4-thiolate
# Providencia rettgeri = assay: Antibacterial activity against gentamicin-resistant Proteus rettgeri clinical isolate after 18 hrs by agar dilution method; assay type: functional
# Haemophilus influenzae = assay: Antibacterial activity against non-gentamicin-resistant Haemophilus influenzae clinical isolate after 18 hrs by agar dilution method; assay type: functional
# Enterobacter cloacae [2] = assay: Antibacterial activity against gentamicin-resistant Enterobacter cloacae clinical isolate assessed as susceptible isolates after 18 hrs by agar dilution method; assay type: functional
# Pseudomonas aeruginosa [3] = assay: Antibacterial activity against non-gentamicin-resistant Pseudomonas aeruginosa clinical isolate after 18 hrs by agar dilution method; assay type: functional
# [4] = system: Staphylococcus epidermidis; assay: Antibacterial activity against gentamicin-resistant Staphylococcus epidermidis clinical isolate assessed as susceptible isolates after 18 hrs by agar dilution method; assay type: functional
# Staphylococcus aureus [5] = assay: Antibacterial activity against gentamicin-resistant Staphylococcus aureus clinical isolate assessed as susceptible isolates after 18 hrs by agar dilution method; assay type: functional
# [6] = system: Acinetobacter calcoaceticus; assay: Antibacterial activity against gentamicin-resistant Acinetobacter calcoaceticus clinical isolate after 18 hrs by agar dilution method; assay type: functional
# Citrobacter freundii [7] = assay: Antibacterial activity against gentamicin-resistant Citrobacter freundii clinical isolate assessed as susceptible isolates after 18 hrs by agar dilution method; assay type: functional
# Klebsiella aerogenes [8] = assay: Antibacterial activity against non-gentamicin-resistant Enterobacter aerogenes clinical isolate assessed as susceptible isolates after 18 hrs by agar dilution method; assay type: functional
# [9] = system: Haemophilus parainfluenzae; assay: Antibacterial activity against non-gentamicin-resistant Haemophilus parainfluenzae clinical isolate after 18 hrs by agar dilution method; assay type: functional
# Citrobacter freundii [10] = assay: Antibacterial activity against gentamicin-resistant Citrobacter freundii clinical isolate after 18 hrs by agar dilution method; assay type: functional
# Enterobacter cloacae [11] = assay: Antibacterial activity against non-gentamicin-resistant Enterobacter cloacae clinical isolate after 18 hrs by agar dilution method; assay type: functional
# [12] = system: Staphylococcus epidermidis; assay: Antibacterial activity against non-gentamicin-resistant Staphylococcus epidermidis clinical isolate after 18 hrs by agar dilution method; assay type: functional
# Proteus mirabilis [13] = assay: Antibacterial activity against gentamicin-resistant Proteus mirabilis clinical isolate after 18 hrs by agar dilution method; assay type: functional
# [14] = system: Haemophilus parainfluenzae; assay: Antibacterial activity against non-gentamicin-resistant Haemophilus parainfluenzae clinical isolate assessed as susceptible isolates after 18 hrs by agar dilution method; assay type: functional, organism-based
# Staphylococcus aureus [15] = assay: Antibacterial activity against gentamicin-resistant Staphylococcus aureus clinical isolate after 18 hrs by agar dilution method; assay type: functional
# [16] = system: Escherichia coli BL21(DE3); assay: Phosphorylation activity of AAC(6')-APH(2'') in Escherichia coli BL21(DE3) assessed as oxidation of NADH by pyruvate kinase
# Pseudomonas sp. [17] = assay: Antibacterial activity against non-gentamicin-resistant Pseudomonas spp. clinical isolate after 18 hrs by agar dilution method; assay type: functional
# Pseudomonas aeruginosa [18] = assay: Antibacterial activity against gentamicin-resistant Pseudomonas aeruginosa clinical isolate after 18 hrs by agar dilution method; assay type: functional
# Pseudomonas sp. [19] = assay: Antibacterial activity against gentamicin-resistant Pseudomonas spp. clinical isolate assessed as susceptible isolates after 18 hrs by agar dilution method; assay type: functional
# Citrobacter freundii [20] = assay: Antibacterial activity against non-gentamicin-resistant Citrobacter freundii clinical isolate assessed as susceptible isolates after 18 hrs by agar dilution method; assay type: functional
# Klebsiella pneumoniae [21] = assay: Antibacterial activity against non-gentamicin-resistant Klebsiella pneumoniae clinical isolate after 18 hrs by agar dilution method; assay type: functional
# Morganella morganii [22] = assay: Antibacterial activity against gentamicin-resistant Morganella morganii clinical isolate assessed as susceptible isolates after 18 hrs by agar dilution method; assay type: functional
# Enterobacter cloacae [23] = assay: Antibacterial activity against non-gentamicin-resistant Enterobacter cloacae clinical isolate assessed as susceptible isolates after 18 hrs by agar dilution method; assay type: functional
# Citrobacter koseri [24] = assay: Antibacterial activity against gentamicin-resistant Citrobacter diversus clinical isolate assessed as susceptible isolates after 18 hrs by agar dilution method; assay type: functional
# Serratia marcescens [25] = assay: Antibacterial activity against gentamicin-resistant Serratia marcescens clinical isolate after 18 hrs by agar dilution method; assay type: functional
# Enterobacter cloacae [26] = assay: Antibacterial activity against gentamicin-resistant Enterobacter cloacae clinical isolate after 18 hrs by agar dilution method; assay type: functional
# Serratia marcescens [27] = assay: Antibacterial activity against non-gentamicin-resistant Serratia marcescens clinical isolate after 18 hrs by agar dilution method; assay type: functional
# Klebsiella aerogenes [28] = assay: Antibacterial activity against gentamicin-resistant Enterobacter aerogenes clinical isolate after 18 hrs by agar dilution method; assay type: functional
# Escherichia coli [29] = assay: Antibacterial activity against non-gentamicin-resistant Escherichia coli clinical isolate after 18 hrs by agar dilution method; assay type: functional
# Morganella morganii [30] = assay: Antibacterial activity against non-gentamicin-resistant Morganella morganii clinical isolate after 18 hrs by agar dilution method; assay type: functional
# Morganella morganii [31] = assay: Antibacterial activity against gentamicin-resistant Morganella morganii clinical isolate after 18 hrs by agar dilution method; assay type: functional
# Citrobacter freundii [32] = assay: Antibacterial activity against non-gentamicin-resistant Citrobacter freundii clinical isolate after 18 hrs by agar dilution method; assay type: functional
# Proteus mirabilis [33] = assay: Antibacterial activity against non-gentamicin-resistant Proteus mirabilis clinical isolate assessed as susceptible isolates after 18 hrs by agar dilution method; assay type: functional
# [34] = system: Staphylococcus epidermidis; assay: Antibacterial activity against non-gentamicin-resistant Staphylococcus epidermidis clinical isolate assessed as susceptible isolates after 18 hrs by agar dilution method; assay type: functional
# Serratia marcescens [35] = assay: Antibacterial activity against gentamicin-resistant Serratia marcescens clinical isolate assessed as susceptible isolates after 18 hrs by agar dilution method; assay type: functional
# Klebsiella pneumoniae [36] = assay: Antibacterial activity against gentamicin-resistant Klebsiella pneumoniae clinical isolate after 18 hrs by agar dilution method; assay type: functional
# [37] = system: Acinetobacter calcoaceticus; assay: Antibacterial activity against non-gentamicin-resistant Acinetobacter calcoaceticus clinical isolate assessed as susceptible isolates after 18 hrs by agar dilution method; assay type: functional
# [38] = system: Acinetobacter calcoaceticus; assay: Antibacterial activity against gentamicin-resistant Acinetobacter calcoaceticus clinical isolate assessed as susceptible isolates after 18 hrs by agar dilution method; assay type: functional
# Pseudomonas aeruginosa [39] = assay: Antibacterial activity against non-gentamicin-resistant Pseudomonas aeruginosa clinical isolate assessed as susceptible isolates after 18 hrs by agar dilution method; assay type: functional
# Citrobacter koseri [40] = assay: Antibacterial activity against non-gentamicin-resistant Citrobacter diversus clinical isolate after 18 hrs by agar dilution method; assay type: functional
# Klebsiella pneumoniae [41] = assay: Antibacterial activity against gentamicin-resistant Klebsiella pneumoniae clinical isolate assessed as susceptible isolates after 18 hrs by agar dilution method; assay type: functional
# Escherichia coli [42] = assay: Antibacterial activity against gentamicin-resistant Escherichia coli clinical isolate assessed as susceptible isolates after 18 hrs by agar dilution method; assay type: functional
# Pseudomonas sp. [43] = assay: Antibacterial activity against non-gentamicin-resistant Pseudomonas spp. clinical isolate assessed as susceptible isolates after 18 hrs by agar dilution method; assay type: functional
# Pseudomonas sp. [44] = assay: Antibacterial activity against gentamicin-resistant Pseudomonas spp. clinical isolate after 18 hrs by agar dilution method; assay type: functional
molecule,measurement,setting,value
CCN[C@@H]1C[C@H](N)[C@@H](O[C@H]2OC(CN)=CC[C@H]2N)[C@H](O)[C@H]1O[C@H]1OC[C@](C)(O)[C@H](NC)[C@H]1O [NETILMICIN],Km,[1],304 µM
same,MIC50,Providencia rettgeri,16 µg/mL
same,MIC90,Providencia rettgeri,128 µg/mL
same,MIC50,Haemophilus influenzae,1 µg/mL
same,MIC90,Haemophilus influenzae,2 µg/mL
same,Activity,Enterobacter cloacae [2],5.3%
same,MIC50,Pseudomonas aeruginosa [3],8 µg/mL
same,MIC90,Pseudomonas aeruginosa [3],32 µg/mL
same,Activity,[4],84.6%
same,Activity,Staphylococcus aureus [5],47.2%
same,MIC50,[6],128 µg/mL
same,MIC90,[6],> 128 µg/mL
same,Activity,Citrobacter freundii [7],47.4%
same,Activity,Klebsiella aerogenes [8],98.1%
same,MIC50,[9],1 µg/mL
same,MIC90,[9],2 µg/mL
same,MIC50,Citrobacter freundii [10],8 µg/mL
same,MIC90,Citrobacter freundii [10],> 128 µg/mL
same,MIC50,Enterobacter cloacae [11],0.5 µg/mL
same,MIC90,Enterobacter cloacae [11],2 µg/mL
same,MIC50,[12],0.25 µg/mL
same,MIC90,[12],1 µg/mL
same,MIC50,Proteus mirabilis [13],16 µg/mL
same,MIC90,Proteus mirabilis [13],> 128 µg/mL
same,Activity,[14],inactive
same,MIC50,Staphylococcus aureus [15],16 µg/mL
same,MIC90,Staphylococcus aureus [15],128 µg/mL
same,Km,[16],308 µM
same,MIC50,Pseudomonas sp. [17],8 µg/mL
same,MIC90,Pseudomonas sp. [17],32 µg/mL
same,MIC50,Pseudomonas aeruginosa [18],> 128 µg/mL
same,MIC90,Pseudomonas aeruginosa [18],> 128 µg/mL
same,Activity,Pseudomonas sp. [19],0%
same,Activity,Citrobacter freundii [20],83.3%
same,MIC50,Klebsiella pneumoniae [21],0.5 µg/mL
same,MIC90,Klebsiella pneumoniae [21],0.5 µg/mL
same,Activity,Morganella morganii [22],41.7%
same,Activity,Enterobacter cloacae [23],98.2%
same,Activity,Citrobacter koseri [24],7.1%
same,MIC50,Serratia marcescens [25],> 128 µg/mL
same,MIC90,Serratia marcescens [25],> 128 µg/mL
same,MIC50,Enterobacter cloacae [26],128 µg/mL
same,MIC90,Enterobacter cloacae [26],> 128 µg/mL
same,MIC50,Serratia marcescens [27],1 µg/mL
same,MIC90,Serratia marcescens [27],4 µg/mL
same,MIC50,Klebsiella aerogenes [28],32 µg/mL
same,MIC90,Klebsiella aerogenes [28],128 µg/mL
same,MIC50,Escherichia coli [29],0.5 µg/mL
same,MIC90,Escherichia coli [29],0.5 µg/mL
same,MIC50,Morganella morganii [30],1 µg/mL
same,MIC90,Morganella morganii [30],2 µg/mL
same,MIC50,Morganella morganii [31],8 µg/mL
same,MIC90,Morganella morganii [31],16 µg/mL
same,MIC50,Citrobacter freundii [32],1 µg/mL
same,MIC90,Citrobacter freundii [32],16 µg/mL
same,Activity,Proteus mirabilis [33],98.4%
same,Activity,[34],100%
same,Activity,Serratia marcescens [35],10%
same,MIC50,Klebsiella pneumoniae [36],32 µg/mL
same,MIC90,Klebsiella pneumoniae [36],> 128 µg/mL
same,Activity,[37],87.8%
same,Activity,[38],20%
same,Activity,Pseudomonas aeruginosa [39],63.9%
same,MIC50,Citrobacter koseri [40],0.5 µg/mL
same,MIC90,Citrobacter koseri [40],0.5 µg/mL
same,Activity,Klebsiella pneumoniae [41],17.9%
same,Activity,Escherichia coli [42],66.7%
same,Activity,Pseudomonas sp. [43],72.7%
same,MIC50,Pseudomonas sp. [44],> 128 µg/mL
same,MIC90,Pseudomonas sp. [44],> 128 µg/mL
GENTAMICIN,MIC50,Providencia rettgeri,64 µg/mL
same,MIC90,Providencia rettgeri,128 µg/mL
same,MIC50,Haemophilus influenzae,2 µg/mL
same,MIC90,Haemophilus influenzae,2 µg/mL
same,Activity,Enterobacter cloacae [2],0%
same,MIC50,Pseudomonas aeruginosa [3],4 µg/mL
same,MIC90,Pseudomonas aeruginosa [3],8 µg/mL
same,Activity,[4],0%
same,Activity,Staphylococcus aureus [5],0%
same,MIC50,[6],> 128 µg/mL
same,MIC90,[6],> 128 µg/mL
same,Activity,Citrobacter freundii [7],0%
same,Activity,Klebsiella aerogenes [8],98.1%
same,MIC50,[9],2 µg/mL
same,MIC90,[9],4 µg/mL
same,MIC50,Citrobacter freundii [10],64 µg/mL
same,MIC90,Citrobacter freundii [10],128 µg/mL
same,MIC50,Enterobacter cloacae [11],0.25 µg/mL
same,MIC90,Enterobacter cloacae [11],0.5 µg/mL
same,MIC50,[12],0.06 µg/mL
same,MIC90,[12],4 µg/mL
same,MIC50,Proteus mirabilis [13],128 µg/mL
same,MIC90,Proteus mirabilis [13],> 128 µg/mL
same,Activity,[14],inactive
same,MIC50,Staphylococcus aureus [15],32 µg/mL
same,MIC90,Staphylococcus aureus [15],128 µg/mL
same,MIC50,Pseudomonas sp. [17],2 µg/mL
same,MIC90,Pseudomonas sp. [17],8 µg/mL
same,MIC50,Pseudomonas aeruginosa [18],> 128 µg/mL
same,MIC90,Pseudomonas aeruginosa [18],> 128 µg/mL
same,Activity,Pseudomonas sp. [19],0%
same,Activity,Citrobacter freundii [20],100%
same,MIC50,Klebsiella pneumoniae [21],0.25 µg/mL
same,MIC90,Klebsiella pneumoniae [21],0.5 µg/mL
same,Activity,Morganella morganii [22],0%
same,Activity,Enterobacter cloacae [23],98.2%
same,Activity,Citrobacter koseri [24],0%
same,MIC50,Serratia marcescens [25],> 128 µg/mL
same,MIC90,Serratia marcescens [25],> 128 µg/mL
same,MIC50,Enterobacter cloacae [26],> 128 µg/mL
same,MIC90,Enterobacter cloacae [26],> 128 µg/mL
same,MIC50,Serratia marcescens [27],0.25 µg/mL
same,MIC90,Serratia marcescens [27],0.5 µg/mL
same,MIC50,Klebsiella aerogenes [28],> 128 µg/mL
same,MIC90,Klebsiella aerogenes [28],> 128 µg/mL
same,MIC,Escherichia coli [29],0.25 µg/mL
same,MIC90,Escherichia coli [29],1 µg/mL
same,MIC90,Morganella morganii [30],8 µg/mL
same,MIC50,Morganella morganii [31],128 µg/mL
same,MIC90,Morganella morganii [31],> 128 µg/mL
same,MIC50,Citrobacter freundii [32],0.25 µg/mL
same,MIC90,Citrobacter freundii [32],1 µg/mL
same,Activity,Proteus mirabilis [33],96.8%
same,Activity,[34],92.5%
same,Activity,Serratia marcescens [35],0%
same,MIC50,Klebsiella pneumoniae [36],128 µg/mL
same,MIC90,Klebsiella pneumoniae [36],> 128 µg/mL
same,Activity,[37],98%
same,Activity,[38],0%
same,Activity,Pseudomonas aeruginosa [39],65.6%
same,MIC50,Citrobacter koseri [40],0.25 µg/mL
same,MIC90,Citrobacter koseri [40],0.5 µg/mL
same,Activity,Klebsiella pneumoniae [41],0%
same,Activity,Escherichia coli [42],0%
same,Activity,Pseudomonas sp. [43],81.8%
same,MIC50,Pseudomonas sp. [44],128 µg/mL
same,MIC90,Pseudomonas sp. [44],> 128 µg/mL
